Molecular target: T1, YES1 (Homo sapiens, UniProt P07947)
T1 construct: purchased Thermo Fisher Scientific (Life Technologies) SelectScreen
Assay: SelectScreen Z'LYTE
Assay type: biochemical
Outline: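 SelectScreen broad panel; activity (Z'LYTE, Adapta) plus binding formats. ATP: Km app for CSF1R Z'LYTE; 10 for CAMK1 Adapta. Readout = % per kinase.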

T1 sequence (P07947 whole entry): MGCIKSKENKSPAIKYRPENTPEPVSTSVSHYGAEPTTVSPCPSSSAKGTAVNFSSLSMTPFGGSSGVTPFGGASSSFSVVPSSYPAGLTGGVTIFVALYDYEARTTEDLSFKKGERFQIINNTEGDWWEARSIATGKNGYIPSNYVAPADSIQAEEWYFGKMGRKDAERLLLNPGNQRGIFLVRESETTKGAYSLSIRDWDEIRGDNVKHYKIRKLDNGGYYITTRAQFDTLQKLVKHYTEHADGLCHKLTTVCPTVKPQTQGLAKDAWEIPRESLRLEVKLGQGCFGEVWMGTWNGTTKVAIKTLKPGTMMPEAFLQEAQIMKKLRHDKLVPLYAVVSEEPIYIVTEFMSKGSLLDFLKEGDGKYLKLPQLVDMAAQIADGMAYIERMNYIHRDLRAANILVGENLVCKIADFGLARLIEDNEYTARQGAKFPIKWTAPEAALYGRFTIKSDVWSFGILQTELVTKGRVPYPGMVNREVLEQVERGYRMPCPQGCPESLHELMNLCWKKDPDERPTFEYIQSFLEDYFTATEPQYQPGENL

CN(C(=O)CN1CCOCC1)c1ccc2sc3c(-c4cccc5c(=O)cc(N6CC7CCC(C6)O7)oc45)cccc3c2c1 [NU5455]
inhibition at 1 µM: 7.4%
